Reference: US11661400B2, “NADPH oxidase inhibitors, pharmaceutical composition comprising the same, and application thereof” (TAIWANJ PHARMACEUTICALS CO., LTD., priority 2018, dated 2023)

Assays:
NOX1 = target: T1, NOX1 (Homo sapiens, UniProt Q9Y5S8); assay: NOX1 HT29 cell-based assay (luminol/HRP luminescence); conditions: HT29 cells, DMSO = 0%, GKT137831 = 100%; for inhibition at 0.1 µM / inhibition at 1 µM: HT-29
T1 construct: endogenous in cells; host or cells: HT29
T1 sequence (Q9Y5S8 1-564): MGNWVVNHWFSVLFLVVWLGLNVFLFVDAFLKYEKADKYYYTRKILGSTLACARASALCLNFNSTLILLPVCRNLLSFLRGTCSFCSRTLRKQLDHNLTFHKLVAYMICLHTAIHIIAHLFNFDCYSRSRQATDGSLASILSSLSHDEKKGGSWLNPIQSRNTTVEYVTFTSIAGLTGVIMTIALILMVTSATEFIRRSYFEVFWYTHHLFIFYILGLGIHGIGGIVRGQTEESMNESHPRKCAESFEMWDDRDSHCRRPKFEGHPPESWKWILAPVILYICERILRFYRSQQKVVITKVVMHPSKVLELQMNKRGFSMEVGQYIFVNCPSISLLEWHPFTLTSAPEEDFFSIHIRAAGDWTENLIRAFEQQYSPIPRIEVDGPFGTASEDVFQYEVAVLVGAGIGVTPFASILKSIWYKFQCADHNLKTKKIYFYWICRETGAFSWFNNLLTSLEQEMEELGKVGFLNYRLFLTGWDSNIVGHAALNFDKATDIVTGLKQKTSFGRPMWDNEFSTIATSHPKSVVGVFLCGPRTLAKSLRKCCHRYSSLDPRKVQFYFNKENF
T1 sequence (P13498 2-195 partner limits assumed): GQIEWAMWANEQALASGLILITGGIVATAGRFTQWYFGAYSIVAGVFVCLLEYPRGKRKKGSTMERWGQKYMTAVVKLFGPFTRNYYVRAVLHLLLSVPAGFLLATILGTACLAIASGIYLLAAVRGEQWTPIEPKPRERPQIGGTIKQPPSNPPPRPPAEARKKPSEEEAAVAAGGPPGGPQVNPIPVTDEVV
Outline: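 HT29 cells (1-2×10^5 per well) pretreated 30-60 min at 37 °C with compound at 100 nM and 1000 nM final, in duplicate, 0.1% DMSO. ROS read as luminol (100 μM)/HRP (0.4 U) luminescence. Activity normalised to DMSO (0%) and GKT137831 (100%).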

NOX2 = target: T2, NOX2 (Homo sapiens, UniProt P04839); assay: NOX2 HL60 cell-based assay (PMA oxidative burst, L012 chemiluminescence); conditions: DMSO-differentiated HL-60 cells, PMA-stimulated; for inhibition at 0.1 µM: HL-60, 100 nM; for inhibition at 1 µM: HL-60, 1000 nM
T2 construct: HL-60 cells, rich in NOX2 expression; endogenous in cells; host or cells: DMSO-differentiated HL-60
T2 sequence (P04839 2-570 limits assumed): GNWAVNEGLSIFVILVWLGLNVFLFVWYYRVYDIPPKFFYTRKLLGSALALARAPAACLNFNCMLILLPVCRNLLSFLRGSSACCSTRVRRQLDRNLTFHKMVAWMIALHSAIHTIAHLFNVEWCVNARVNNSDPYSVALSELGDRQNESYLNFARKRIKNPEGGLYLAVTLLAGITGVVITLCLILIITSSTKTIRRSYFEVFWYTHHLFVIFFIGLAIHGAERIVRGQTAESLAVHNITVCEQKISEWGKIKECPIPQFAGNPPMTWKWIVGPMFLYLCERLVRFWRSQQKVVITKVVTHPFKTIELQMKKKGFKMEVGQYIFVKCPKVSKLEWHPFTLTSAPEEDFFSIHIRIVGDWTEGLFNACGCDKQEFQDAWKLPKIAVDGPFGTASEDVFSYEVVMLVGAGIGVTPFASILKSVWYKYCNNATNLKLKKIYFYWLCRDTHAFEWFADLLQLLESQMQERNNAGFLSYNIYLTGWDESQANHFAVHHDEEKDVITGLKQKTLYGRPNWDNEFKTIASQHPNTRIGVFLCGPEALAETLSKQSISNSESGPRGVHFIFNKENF
T2 sequence (P13498 2-195 partner limits assumed): T1 sequence (P13498 2-195 partner limits assumed)
Outline: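 DMSO-differentiated HL-60 cells (2.5×10^5/well) with 100 μM L012 preincubated with compound 30-60 min at 37 °C in the dark. Oxidative burst triggered by 10 ng/mL PMA; superoxide chemiluminescence read every 5 min for 60 min.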

NOX4 = target: T3, NOX4 (Homo sapiens, UniProt Q9NPH5); assay: NOX4 HEK293 overexpression cell-based assay (Amplex Red H2O2); conditions: HEK293 cells stably overexpressing NOX4, DMSO = 0, GKT137831 = 100; for inhibition at 0.1 µM: HEK293, 100 nM; for inhibition at 1 µM: HEK293, 1000 nM
T3 construct: expressed in transfected cells
T3 sequence (Q9NPH5 1-578): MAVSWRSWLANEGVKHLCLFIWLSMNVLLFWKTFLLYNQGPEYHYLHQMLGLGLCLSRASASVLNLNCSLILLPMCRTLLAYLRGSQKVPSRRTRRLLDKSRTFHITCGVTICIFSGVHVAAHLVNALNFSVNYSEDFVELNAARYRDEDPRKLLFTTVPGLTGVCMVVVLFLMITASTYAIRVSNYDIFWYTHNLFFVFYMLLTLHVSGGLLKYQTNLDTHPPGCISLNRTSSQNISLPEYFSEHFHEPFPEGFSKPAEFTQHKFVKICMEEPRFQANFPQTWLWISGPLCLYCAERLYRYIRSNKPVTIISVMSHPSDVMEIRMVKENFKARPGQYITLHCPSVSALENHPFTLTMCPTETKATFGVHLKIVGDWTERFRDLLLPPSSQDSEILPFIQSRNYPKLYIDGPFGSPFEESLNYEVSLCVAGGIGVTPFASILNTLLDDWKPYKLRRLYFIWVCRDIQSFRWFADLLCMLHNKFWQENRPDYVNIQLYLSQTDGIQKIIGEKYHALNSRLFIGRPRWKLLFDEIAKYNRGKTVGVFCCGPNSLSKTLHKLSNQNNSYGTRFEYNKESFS
T3 sequence (P13498 2-195 partner limits assumed): T1 sequence (P13498 2-195 partner limits assumed)
Outline: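 HEK293 cells stably overexpressing NOX4 (3×10^4) preincubated 30 min at 37° C with compound in KRPG buffer, then mixed with Amplex Red reagent solution (50 μM Amplex Red, 0.1 units/mL HRP) for 90 min at 37° C in the dark. Supernatant fluorescence read at 530/590 nm; DMSO set to 0 and GKT137831 to 100.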

Row | SMILES | inhibition at 0.1 µM (NOX1; 100 nM) | inhibition at 1 µM (NOX1; 1000 nM) | inhibition at 0.1 µM (NOX2) | inhibition at 1 µM (NOX2) | inhibition at 0.1 µM (NOX4) | inhibition at 1 µM (NOX4) | % Inhibition NOX1 (NOX1; 100 nM) | % Inhibition NOX2 (NOX2; 100 nM) | % Inhibition NOX4 (NOX4; 1000 nM) | % Inhibition NOX1 (NOX1; 1000 nM) | % Inhibition NOX2 (NOX2; 100 nM, 0.1 µM) | % Inhibition NOX2 (NOX2; 1000 nM, 1 µM) | % Inhibition NOX4 (NOX4; 100 nM) | % Inhibition NOX2 (NOX2; 1000 nM) | % Inhibition NOX2 (NOX2; 100 nM, acetate, 0.1 µM) | % Inhibition NOX2 (NOX2; 1000 nM, acetate, 1 µM)
1 | COc1ccc(-c2[nH]c3cc(C(=O)O)ccc3c(=O)c2O)cc1 [Compound 33, 3-hydroxy-2-(4-methoxyphenyl)-4-oxo-1,4-dihydroquinoline-7-carboxylic acid] | ≥ 80% | ≥ 80% | ≤ 19% | 50 to 79% | ≤ 19% | 50 to 79% |  |  |  |  |  |  |  |  |  | 
2 | COc1ccc2[nH]c(C(=O)c3ccccc3OC)c(O)c(=O)c2c1 [Compound 34, 3-hydroxy-6-methoxy-2-(2-methoxybenzoyl) quinolin-4(1H)-one] | ≤ 19% | ≤ 19% | ≤ 19% | ≤ 19% | ≤ 19% | ≤ 19% |  |  |  |  |  |  |  |  |  | 
3 | COc1cc2c(cc1OC)C(=O)NCC(c1ccccc1Cl)=N2 [Compound 35, 2-(2-chlorophenyl)-7,8-dimethoxy-3,4-dihydro-5H-benzo[e][1,4] diazepin-5-one] | ≤ 19% | ≤ 19% | ≤ 19% | ≤ 19% | ≤ 19% | ≤ 19% |  |  |  |  |  |  |  |  |  | 
4 | COc1cc2[nH]c(-c3ccccc3Cl)c(N)c(=O)c2cc1OC [Compound 36, 3-amino-2-(2-chlorophenyl)-6,7-dimethoxyquinolin-4(1H)-one] |  | ≥ 80% |  | ≥ 80% | ≤ 19% | 50 to 79% | C (the percent of inhibition of NOX by the compounds ranges from 2000 to 49%) | C (the percent of inhibition of NOX by the compounds ranges from 2000 to 49%) |  |  |  |  |  |  |  | 
5 | COc1cc2[nH]c(-c3ccccc3)c(N)c(=O)c2cc1OC [Compound 37] | ≤ 19% | ≥ 80% | 50 to 79% | ≥ 80% | ≤ 19% | 50 to 79% |  |  |  |  |  |  |  |  |  | 
6 | COc1cc2[nH]c(-c3ccccc3C(F)(F)F)c(O)c(=O)c2cc1OC [Compound 41, 3-hydroxy-6,7-dimethoxy-2-(2-(trifluoromethyl)phenyl) quinolin-4(1H)-one] |  |  |  |  |  |  | A (the percent of inhibition of NOX by the compounds is larger than or equals to 80%) |  | B (the percent of inhibition of NOX by the compounds ranges from 50% o to 79% o) | A (the percent of inhibition of NOX by the compounds is larger than or equals to 80%) | C (the percent of inhibition of NOX by the compounds ranges from 2000 to 49%) | A (the percent of inhibition of NOX by the compounds is larger than or equals to 80%) | B (the percent of inhibition of NOX by the compounds ranges from 50% o to 79% o) |  |  | 
7 | COc1cc2[nH]c(-c3ccccc3C(F)(F)F)c(O)c(=O)c2cc1OC [Compound 43, 3-hydroxy-6,7-dimethoxy-2-(2-(trifluoromethyl)phenyl)quinolin-4(1H)-one acetate] |  |  |  |  |  |  | A (the percent of inhibition of NOX by the compounds is larger than or equals to 80%) |  | B (the percent of inhibition of NOX by the compounds ranges from 50% o to 79% o) | A (the percent of inhibition of NOX by the compounds is larger than or equals to 80%) |  |  | B (the percent of inhibition of NOX by the compounds ranges from 50% o to 79% o) |  | B (the percent of inhibition of NOX by the compounds ranges from 50% o to 79% o) | A (the percent of inhibition of NOX by the compounds is larger than or equals to 80%)

Now from value to compound, other results behind:

Row | inhibition at 0.1 µM (NOX1; 100 nM) | inhibition at 1 µM (NOX1; 1000 nM) | inhibition at 0.1 µM (NOX2) | inhibition at 1 µM (NOX2) | inhibition at 0.1 µM (NOX4) | inhibition at 1 µM (NOX4) | SMILES | % Inhibition NOX1 (NOX1; 100 nM) | % Inhibition NOX2 (NOX2; 100 nM) | % Inhibition NOX4 (NOX4; 1000 nM) | % Inhibition NOX1 (NOX1; 1000 nM) | % Inhibition NOX2 (NOX2; 100 nM, 0.1 µM) | % Inhibition NOX2 (NOX2; 1000 nM, 1 µM) | % Inhibition NOX4 (NOX4; 100 nM) | % Inhibition NOX2 (NOX2; 1000 nM) | % Inhibition NOX2 (NOX2; 100 nM, acetate, 0.1 µM) | % Inhibition NOX2 (NOX2; 1000 nM, acetate, 1 µM)
8 | ≤ 19% | ≤ 19% | ≤ 19% | ≤ 19% | ≤ 19% |  | COc1cc2[nH]c(-c3ccccc3OC)c(N)c(=O)c2cc1OC [Compound 38] |  |  | C (the percent of inhibition of NOX by the compounds ranges from 2000 to 49%) |  |  |  |  |  |  | 
9 | ≤ 19% | ≥ 80% | ≤ 19% | ≤ 19% | ≤ 19% | 50 to 79% | COc1ccc(-c2c(O)c(=O)c3ccccc3n2C)cc1 [Compound 39] |  |  |  |  |  |  |  |  |  | 
10 | ≤ 19% | ≥ 80% |  | 50 to 79% | ≤ 19% | 50 to 79% | COc1ccccc1-c1[nH]c2cccc(-c3cccc(N(C)C)c3)c2c(=O)c1O [Compound 40] |  | C (the percent of inhibition of NOX by the compounds ranges from 2000 to 49%) |  |  |  |  |  |  |  | 
11 |  |  | 50 to 79% |  |  |  | COc1cc2[nH]c(-c3ccccc3C(F)(F)F)c(O)c(=O)c2cc1OC.Cl [Compound 42, 3-hydroxy-6,7-dimethoxy-2-(2-(trifluoromethyl)phenyl) quinolin-4(1H)-one hydrochloride] | A (the percent of inhibition of NOX by the compounds is larger than or equals to 80%) |  | B (the percent of inhibition of NOX by the compounds ranges from 50% o to 79% o) | A (the percent of inhibition of NOX by the compounds is larger than or equals to 80%) |  |  | B (the percent of inhibition of NOX by the compounds ranges from 50% o to 79% o) | A (the percent of inhibition of NOX by the compounds is larger than or equals to 80%) |  | 
